Test results reported in patent US20230132823A1, “BI-FUNCTIONAL COMPOUNDS AND METHODS FOR TARGETED UBIQUITINATION OF ANDROGEN RECEPTOR” (MONTELINO THERAPEUTICS, INC., priority 2020, published 2023).
Where two headings read alike, the source gives them in different places. Where a SMILES comes first, the peptide text is derived from it. [ ]: non-standard residue; d: D form. The star is where a group is joined. ξ: configuration not given here. X1 = O=C(COc1c(-c2csc(N3CCOCC3)n2)ccc(F)c1F)NCCCCCCN*; Dip = N[C@H](C(=O)O)C(c1ccccc1)c1ccccc1; Chg = N[C@H](C(=O)O)C1CCCCC1; NMeA = CN[C@@H](C)C(=O)O; ξP = O=C(O)C1CCCN1

What was measured:
[1] = Body weight of tumor-bearing mice during treatment; assay type: in vivo
Description: (§1) The in vivo effects of the Compound of Example 16 are assessed in mice using enzalutamide-resistant CaP xenografts. First, 22Rv1-Enz^R tumor xenografts are established in nu/nu mice. Upon CaP xenograft formation (average diameter of 3 mm), mice are randomized into controls or treatment. Control mice are treated with 100 μl vehicle containing 10 mg/ml enzalutamide (n=5). The treatment group is injected with 100 μl vehicle containing 2.5 mg/ml Compound of Example 16 and 10 mg/ml enzalutamide daily directly into tumors (n=5) and tumor volumes were followed. […] Tumors are harvested and analyzed at the end of the study period.
Enzalutamide-resistant CaP tumor xenografts are established in twelve mice and three each are assigned to the following four groups: control IP (vehicle), control oral (vehicle), 8.3 mg/kg IP, and 8.3 mg/kg oral. Because these cells are resistant to enzalutamide, all animals are administered enzalutamide.

AR-V7 = target: T1, AR-V7 (Homo sapiens, UniProt P10275); assay: Immunoblot analysis of AR-V7 protein in CaP cells (Experimental Example 3); assay type: cell-based; parameters: endogenous in cells; host or cells: 22Rv1 (also VCaP, LNCaP and SAT-resistant sublines)
T1 sequence (P10275 1-644 isoform P10275-3): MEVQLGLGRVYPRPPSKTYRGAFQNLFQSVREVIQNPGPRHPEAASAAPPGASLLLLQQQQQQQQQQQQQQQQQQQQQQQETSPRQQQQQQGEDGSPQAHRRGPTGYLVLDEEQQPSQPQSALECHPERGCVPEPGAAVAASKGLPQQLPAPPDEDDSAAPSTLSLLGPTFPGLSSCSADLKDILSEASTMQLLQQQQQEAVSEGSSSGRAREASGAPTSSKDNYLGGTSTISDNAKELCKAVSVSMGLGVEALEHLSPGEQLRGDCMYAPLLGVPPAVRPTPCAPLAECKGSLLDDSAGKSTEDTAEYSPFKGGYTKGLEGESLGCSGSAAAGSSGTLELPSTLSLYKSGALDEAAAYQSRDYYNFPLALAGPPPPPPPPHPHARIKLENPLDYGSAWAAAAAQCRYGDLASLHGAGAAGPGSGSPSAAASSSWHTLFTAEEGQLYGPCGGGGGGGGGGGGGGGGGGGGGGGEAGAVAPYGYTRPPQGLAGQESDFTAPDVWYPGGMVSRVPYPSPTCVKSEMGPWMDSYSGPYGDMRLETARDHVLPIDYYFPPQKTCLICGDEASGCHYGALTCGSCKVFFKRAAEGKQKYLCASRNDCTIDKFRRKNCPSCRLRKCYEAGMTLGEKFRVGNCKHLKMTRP
Description: Cell Culture. Human CaP cell lines, LNCaP, 22Rv1, VCaP, PC3, and DU145 are obtained from the American Type Culture Collection (ATCC) and maintained in the standard culture media: RPMI-1640 supplemented with 10% fetal bovine serum (FBS). LNCaP, 22Rv1, and VCaP are androgen-responsive cell lines, while PC3 and DU145 are not. To establish SAT resistant CaP cell lines, LNCaP, 22Rv1, and VCaP are treated continuously with 10-50 μM abiraterone, apalutamide, darolutamide, or enzalutamide. After 3-6 months, stable cell lines are established and designated as LNCaP-Abi^R, LNCaP-Apa^R, LNCaP-Daro^R, LNCaP-Enz^R, VCaP-Abi^R, VCaP-Apa^R, VCaP-Daro^R, VCaP-Enz^R, 22Rv1-Abi^R, 22Rv1-Apa^R, 22Rv1-Daro^R and 22Rv1-Enz^R. Unless otherwise specified, the standard culture media for these SAT-resistant cell lines included 10 μM of their respective SAT. For the proteasome inhibitor study, the inhibitors MG132 and Epoxomicin are used. The E3 ligase inhibitors Heclin, Nutlin 3a, Thalidomide, and VH298 are used. Cell lines obtained from ATCC are confirmed by checking their morphology using optical microscopy, establishing baselines for cell proliferation, verifying species of origin using isoenzymology, and characterizing the cell's DNA fingerprint using short tandem repeat (STR) profiling. Mycoplasma contamination is also assessed using a PCR based detection system.
Immunoblot Analysis. CaP cells are collected and lysed with the lysis buffer (20 mM Tris-HCl (pH 7.5), 150 mM NaCl, 1 mM Na2EDTA, 1 mM EGTA, 1% Triton, 2.5 mM sodium pyrophosphate, 1 mM beta-glycerophosphate, 1 mM Na3VO4, and 1 μg/ml leupeptin) containing 1 mM phenylmethylsulfonyl fluoride (PMSF). Cell lysates are then centrifuged and protein in the supernatant is quantified. After separating 25-50 μg of protein using SDS-PAGE, samples are incubated with AR-V7, GR, PR, ERα, AR-FL, ubiquitin, or β-actin antibodies. For AR-V7, AR-FL, PR, GR, and ERα immunoblots, primary antibody is diluted 1:1000 in 5% skim milk. For the β-actin immunoblot, 1:10000 diluted primary antibody is used. All membranes are incubated overnight at 4° C. Following the incubation with appropriate secondary antibody, immunoblots are analyzed using SuperSignal West Femto Maximum Sensitivity Substrate (ThermoFisher).

[2] = tested on: 22Rv1-Enz^R tumor xenografts; assay: 22Rv1-Enz^R tumor xenograft in castrated nu/nu mice; assay type: in vivo; settings: for tumor mass at 7 weeks: control approx. 1500 mm^3
Description: In Vivo Study. To explore the therapeutic potential of Test Compound, 22Rv1, 22Rv1-Enz^R, VCaP, and VCaP-Enz^R are injected into nu/nu immunodeficient mice. When the resulting tumors reached an average size of 3 mm in diameter, all animals are surgically castrated via bilateral orchiectomy and divided into four groups of five mice each. For anesthesia, 3% isoflurane gas inhalation is used. Tumor size was measured using calipers and tumor volume was calculated using the formula: tumor volume=length×width^2[…].
Mice are then treated daily with Test Compound with or without enzalutamide via the indicated route (intratumoral, intraperitoneal, or oral) for five to six weeks. At the end of the study, all animals are sacrificed and tumors are harvested and analyzed. Statistical significance is calculated using the Student's t-test for paired comparisons of experimental groups and, where appropriate, by Wilcoxon rank sum test, and by 2-way ANOVA. In vitro experiments are repeated a minimum of three times.
as §1

22Rv1 = 22Rv1 cell proliferation assay (Experimental Example 1, cell count); assay type: cell-based; settings: Homo sapiens, 22Rv1, read-out: 22Rv1 cell count decrease at 10 μM for 48 hours; 10 μM (method: four days); read-out: 22Rv1 cell count decrease at 10 μM
Outline: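 Human prostate cancer 22Rv1 cells, reported to express high levels of AR-V7, were grown in RPMI-1640 containing 10% fetal bovine serum. Test compounds were first dissolved in DMSO as 50 mM stock solutions and then diluted to the required concentrations. Proliferation was assessed as the percentage decrease in cell count.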

Row | AR-V7 degradation after pretreatment with proteasome inhibitors (AR-V7; 22Rv1, 2 hours MG-132 (5 μM) and epoxomicin (1 μM), then compound at 1 μM) | DC50 (AR-V7; 22Rv1, 24 hours, immunoblot, read-out: DC50, concentration at which 50% of AR-V7 degraded in 24 hours) | concentration from which AR-V7 protein expression is decreased (immunoblot) (AR-V7; 22Rv1 cells, 24 hours, 0, 0.01, 0.1, 1 and 10 μM tested) | AR-V7 protein expression level in parental and SAT-resistant 22Rv1, VCaP and LNCaP cells (AR-V7; immunoblot, effect on AR-V7 greater than on AR-FL) | DC50 (AR-V7; 24 hours, immunoblot, read-out: DC50, concentration at which 50% of AR-V7 is degraded in 24 hours) | SMILES | change in weight following treatment ([1]; 8.3 mg/kg systemic dosing, four weeks) | weight of the mice during treatment ([1]; intratumoral, 22Rv1-Enz^R xenograft, 5 weeks) | AR-V7 degradation after pretreatment with E3 ubiquitin ligase inhibitors (AR-V7; 22Rv1, two hours VH 298 20 μM, heclin 10 μM, nutlin 3a 0.1 μM or thalidomide 10 μM, then compound at 1 μM) | tumor volume at the end of 5 weeks ([2]; intratumoral daily, 100 μl of 2.5 mg/ml compound plus 10 mg/ml enzalutamide, control 800 mm^3) | inhibition at 10 µM (22Rv1) | changes in animal body mass ([1]; 22Rv1-Enz^R tumors, 8.3 mg/kg and 0.83 mg/kg, 7 weeks) | tumor mass at 7 weeks ([2]; 0.83 mg/kg) | tumor mass at 7 weeks ([2]; 8.3 mg/kg)
1 | completely blocked | 370 nM | 0.1 µM | decreases the protein expression levels | – | Cc1ncsc1-c1ccc([C@H](C)NC(=O)[C@@H]2C[C@@H](O)CN2C(=O)[C@@H](NC(=O)CCCCNC(=O)COc2c(-c3csc(N4CCOCC4)n3)ccc(F)c2F)C(C)(C)C)cc1 [Example 16, (2S,4R)-1-((S)-2-(5-(2-(2,3-difluoro-6-(2-morpholinothiazol-4-yl)phenoxy)acetamido)pentanamido)-3,3-dimethylbutanoyl)-4-hydroxy-N-((S)-1-(4-(4-methylthiazol-5-yl)phenyl)ethyl)pyrrolidine-2-carboxamide] | no significant change in weight | did not significantly change | only VH298 pretreatment inhibits AR-V7 degradation | approximately 500 mm^3 | < 50% | – | – | –
2 | – | – | – | – | < 50 nM | CN[C@@H](C)C(=O)N[C@H](C(=O)N1CCCC1C(=O)N[C@H](C(=O)NCCCCCCNC(=O)COc1c(-c2csc(N3CCOCC3)n2)ccc(F)c1F)C(c1ccccc1)c1ccccc1)C1CCCCC1 (stereo partly drawn) [Example 26, (S)-1-((S)-2-cyclohexyl-2-((S)-2-(methylamino)propanamido)acctyl)-N-((S)-1-((6-(2-(2,3-difluoro-6-(2-morpholinothiazol-4-yl)phenoxy)acetamido)hexyl)amino)-1-oxo-3,3-diphenylpropan-2-yl)pyrrolidine-2-carboxamide] (H-[NMeA][Chg][ξP][Dip]-X1) | – | – | – | – | > 50% | No significant changes | < 600 mm^3 | < 600 mm^3
